Measurements reported in US7186743B2, “Substituted pyrazolyl compounds for the treatment of inflammation” (Pharmacia Corporation, priority 2001, dated 2007).
Structures can show the parent of a compound that is named as a salt. Where two headings read alike, the source gives them in different places.

Assays:
[1] = biological target: T1, IKK2 (Homo sapiens, UniProt O14920); assay: IKKβ Resin Enzyme Assay (IKK2 resin); type: biochemical
T1 construct: made in house; host or cells: insect cells (baculovirus, pFastBac; SF9)
T1 sequence (O14920 1-756): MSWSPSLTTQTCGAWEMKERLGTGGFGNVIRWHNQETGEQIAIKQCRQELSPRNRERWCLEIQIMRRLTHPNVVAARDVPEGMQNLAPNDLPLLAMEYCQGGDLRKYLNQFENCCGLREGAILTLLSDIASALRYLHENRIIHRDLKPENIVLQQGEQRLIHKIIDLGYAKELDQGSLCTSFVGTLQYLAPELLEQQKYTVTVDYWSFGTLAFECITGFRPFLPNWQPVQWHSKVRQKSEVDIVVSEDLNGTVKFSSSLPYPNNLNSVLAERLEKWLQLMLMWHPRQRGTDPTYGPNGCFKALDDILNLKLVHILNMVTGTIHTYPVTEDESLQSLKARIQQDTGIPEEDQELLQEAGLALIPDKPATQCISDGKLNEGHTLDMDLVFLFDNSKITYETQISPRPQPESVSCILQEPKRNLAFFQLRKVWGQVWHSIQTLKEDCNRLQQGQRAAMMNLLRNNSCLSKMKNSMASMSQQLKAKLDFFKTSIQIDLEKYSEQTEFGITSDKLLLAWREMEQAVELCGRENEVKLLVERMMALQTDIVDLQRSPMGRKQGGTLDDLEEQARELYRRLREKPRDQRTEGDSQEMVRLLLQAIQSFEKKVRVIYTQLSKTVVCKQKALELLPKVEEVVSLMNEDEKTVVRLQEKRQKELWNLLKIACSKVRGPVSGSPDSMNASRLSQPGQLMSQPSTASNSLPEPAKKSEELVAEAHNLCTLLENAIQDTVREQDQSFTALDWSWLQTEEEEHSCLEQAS
In short: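 Enzyme: human IKK2 with a C-terminal FLAG tag, baculovirus-expressed, purified as homodimer on anti-FLAG resin. It phosphorylates a biotinylated IκBα peptide with 1 μM ATP plus [γ-33P]ATP in 25 mM Hepes pH 7.6, Mg/Mn, for 30 min at 25° C. Incorporation is counted by scintillation after anion-exchange resin stop.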

[2] = Table 21, read-out: IKK2 Resin IC50
[3] = Table 22, read-out: IKK2 Resin IC50
[4] = Table 23, read-out: IKK2 Resin IC50

## CN1CCN(c2ccc(Cl)c(C(=O)Nc3ccc4c(c3)-c3c(c(C(N)=O)nn3-c3ccc5c(c3)OCO5)CC4)n2)CC1 (as salt: salt) [Example 217, 1-(1,3-benzodioxol-5-yl)-8-({[3-chloro-6-(4-methylpiperazin-1-yl)pyridin-2-yl]carbonyl}amino)-4,5-dihydro-1H-benzo[g]indazole-3-carboxamide]
other
  melting point: 264 to 266 °C (dec.)

## CNS(=O)(=O)c1ccc(-n2nc(C(N)=O)c3c2-c2cc(NC(=O)c4ccccc4Cl)ccc2CC3)cc1 [Example 422, 8-[(2-chlorobenzoyl)amino]-1-{4-[(methylamino)sulfonyl]phenyl}-4,5-dihydro-1H-benzo[g]indazole-3-carboxamide]
[1]; read-out: IKK-2 resin IC50
  IC50: ≤ 1000 nM

## C#CCN(CC#C)S(=O)(=O)c1ccc(-n2nc(C(N)=O)c3c2-c2cc(N)ccc2CC3)cc1 [Example 425, 8-amino-1-{4-[(diprop-2-ynylamino)sulfonyl]phenyl}-4,5-dihydro-1H-benzo[g]indazole-3-carboxamide]
[1]; [2]
  IC50: ≤ 1000 nM

## CN(C)S(=O)(=O)c1ccc(-n2nc(C(N)=O)c3c2-c2cc(NS(C)(=O)=O)ccc2CC3)cc1 [Example 426, 1-{4-[(dimethylamino)sulfonyl]phenyl}-8-[(methylsulfonyl)amino]-4,5-dihydro-1H-benzo[g]indazole-3-carboxamide]
[1]; [2]
  IC50: ≤ 1000 nM

## CN(C)S(=O)(=O)c1ccc(-n2nc(C(N)=O)c3c2-c2cc(NC(=O)c4ccccc4Cl)ccc2CC3)cc1 [Example 427, 8-[(2-chlorobenzoyl)amino]-1-{4-[(dimethylamino)sulfonyl]phenyl}-4,5-dihydro-1H-benzo[g]indazole-3-carboxamide]
[1]; [2]
  IC50: ≤ 1000 nM

## CC1(C)Cc2c(C(N)=O)nn(-c3ccc4c(c3)OCO4)c2-c2cc(NC(=O)c3cccnc3Cl)ccc21 [Example 434, 1-(1,3-benzodioxol-5-yl)-8-{[(2-chloropyridin-3-yl)carbonyl]amino}-5,5-dimethyl-4,5-dihydro-1H-benzo[g]indazole-3-carboxamide]
[1]; [3]
  IC50: ≤ 1000 nM

## CC1(C)Cc2c(C(N)=O)nn(-c3ccc4c(c3)OCO4)c2-c2cc(NC(=O)c3ccncc3Cl)ccc21 [Example 435, 1-(1,3-benzodioxol-5-yl)-8-[(3-chloroisonicotinoyl)amino]-5,5-dimethyl-4,5-dihydro-1H-benzo[g]indazole-3-carboxamide]
[1]; [3]
  IC50: ≤ 1000 nM

## CC(C)NCC(=O)Nc1ccc2c(c1)-c1c(c(C(N)=O)nn1-c1ccc3c(c1)OCO3)CC2 [Example 444, 1-(1,3-benzodioxol-5-yl)-8-[(N-isopropylglycyl)amino]-4,5-dihydro-1H-benzo[g]indazole-3-carboxamide]
[1]; [4]
  IC50: ≤ 1000 nM

## NC(=O)c1nn(-c2ccc3c(c2)OCO3)c2c1CCc1ccc(NC(=O)CNC3CCC3)cc1-2 [Example 445, 1-(1,3-benzodioxol-5-yl)-8-[(N-cyclobutylglycyl)amino]-4,5-dihydro-1H-benzo[g]indazole-3-carboxamidehydrochloride]
[1]; [4]
  IC50: ≤ 1000 nM

## CC(C)(C)NCC(=O)Nc1ccc2c(c1)-c1c(c(C(N)=O)nn1-c1ccc3c(c1)OCO3)CC2 [Example 450, 1-(1,3-benzodioxol-5-yl)-8-{[N-(tert-butyl)glycyl]amino}-4,5-dihydro-1H-benzo[g]indazole-3-carboxamide]
[1]; [4]
  IC50: ≤ 1000 nM

## CC(C)CNCC(=O)Nc1ccc2c(c1)-c1c(c(C(N)=O)nn1-c1ccc3c(c1)OCO3)CC2 [Example 451, 1-(1,3-benzodioxol-5-yl)-8-[(N-isobutylglycyl)amino]-4,5-dihydro-1H-benzo[g]indazole-3-carboxamide]
[1]; [4]
  IC50: ≤ 1000 nM

## NC(=O)c1nn(-c2ccc(F)cc2)c2c1CCc1ccc(NC(=O)CNC3CCC3)cc1-2 [Example 452, 8-[(N-cyclobutylglycyl)amino]-1-(4-fluorophenyl)-4,5-dihydro-1H-benzo[g]indazole-3-carboxamide]
[1]; [4]
  IC50: ≤ 1000 nM
